Assay results taken from ChEMBL document CHEMBL4765390, “Discovery of carboxyl-containing biaryl ureas as potent RORγt inverse agonists” (Eur J Med Chem, 2020).
pIC50: −log10 of the molar value. In brackets after ≈: the same amount, converted by molar mass.

Columns and labels:
[1] = Aqueous kinetic solubility of the compound at pH 7.4 PBS buffer at 100 uM incubated for 120 mins by LC-MS/MS analysis; type: physicochemical; conditions: read-out: Kinetic_solubility
[2] = biological target: T1, Nuclear receptor ROR-gamma (Homo sapiens, UniProt P51449); assay: Inverse agonist activity at human RORgammat assessed as inhibition of N-terminal biotinylated co-activator SRC1 recruitment measured after 60 mins by FRET assay
T1 sequence (P51449 whole entry): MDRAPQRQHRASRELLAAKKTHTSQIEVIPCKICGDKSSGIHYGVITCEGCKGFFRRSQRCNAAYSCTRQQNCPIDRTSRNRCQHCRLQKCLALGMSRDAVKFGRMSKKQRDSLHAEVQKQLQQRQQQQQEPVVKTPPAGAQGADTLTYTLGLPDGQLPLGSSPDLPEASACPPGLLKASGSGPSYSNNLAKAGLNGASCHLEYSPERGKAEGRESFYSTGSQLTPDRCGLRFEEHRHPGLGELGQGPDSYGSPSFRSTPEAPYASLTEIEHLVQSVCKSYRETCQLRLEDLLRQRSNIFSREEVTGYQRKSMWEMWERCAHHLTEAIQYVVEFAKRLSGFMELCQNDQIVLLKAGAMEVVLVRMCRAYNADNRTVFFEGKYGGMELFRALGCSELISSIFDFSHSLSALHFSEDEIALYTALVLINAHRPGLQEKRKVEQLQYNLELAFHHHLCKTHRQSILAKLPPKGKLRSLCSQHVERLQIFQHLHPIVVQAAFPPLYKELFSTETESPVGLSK

[3] = biological target: T2, Nuclear receptor ROR-beta (Homo sapiens, UniProt Q92753); assay: Inverse agonist activity at ROR-beta (unknown origin) expressed in HEK293 cells by Gal4-luciferase reporter assay; type: cell-based
T2 sequence (Q92753 whole entry): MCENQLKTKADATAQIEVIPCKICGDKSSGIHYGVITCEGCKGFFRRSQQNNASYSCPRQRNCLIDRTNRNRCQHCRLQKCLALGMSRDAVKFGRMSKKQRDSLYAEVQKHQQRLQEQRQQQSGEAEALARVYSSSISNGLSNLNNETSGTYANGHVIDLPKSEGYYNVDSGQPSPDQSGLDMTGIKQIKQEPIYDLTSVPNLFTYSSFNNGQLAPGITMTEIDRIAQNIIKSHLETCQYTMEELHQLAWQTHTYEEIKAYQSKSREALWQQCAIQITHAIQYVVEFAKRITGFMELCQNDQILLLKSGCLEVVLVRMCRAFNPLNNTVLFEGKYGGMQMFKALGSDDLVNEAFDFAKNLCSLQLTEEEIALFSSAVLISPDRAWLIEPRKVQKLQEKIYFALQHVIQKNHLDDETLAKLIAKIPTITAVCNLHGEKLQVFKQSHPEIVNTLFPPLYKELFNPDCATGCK

[4] = Oral bioavailability in CD-1 mouse at 5 mg/kg administered as single dose measured after 24 hrs by LC-MS/MS analysis; type: ADME, organism-based; conditions: in vivo
[5] = Half life in CD-1 mouse at 5 mg/kg, po administered as single dose measured after 24 hrs by LC-MS/MS analysis; type: ADME, organism-based; conditions: in vivo
[6] = AUC (0 to last) in CD-1 mouse at 1 mg/kg, iv administered as single dose measured after 24 hrs by LC-MS/MS analysis; type: ADME, organism-based; design: route intravenous, dose 1 mg/kg, time 24 hrs; conditions: in vivo
[7] = Cmax in CD-1 mouse at 1 mg/kg, iv administered as single dose measured after 24 hrs by LC-MS/MS analysis; type: ADME, organism-based; design: route intravenous, time 24 hrs, dose 1 mg/kg; conditions: in vivo
[8] = Clearance in CD-1 mouse at 1 mg/kg, iv administered as single dose measured after 24 hrs by LC-MS/MS analysis; type: ADME, organism-based; conditions: in vivo
[9] = Tmax in CD-1 mouse at 5 mg/kg, po administered as single dose measured after 24 hrs by LC-MS/MS analysis; type: ADME, organism-based; conditions: in vivo
[10] = Volume of distribution at steady state in CD-1 mouse at 1 mg/kg, iv administered as single dose measured after 24 hrs by LC-MS/MS analysis; type: ADME, organism-based; conditions: in vivo, read-out: Vdss
[11] = biological target: T3, Nuclear receptor ROR-alpha (Homo sapiens, UniProt P35398); assay: Inverse agonist activity at ROR-alpha (unknown origin) expressed in HEK293 cells by Gal4-luciferase reporter assay; type: cell-based
T3 sequence (P35398 whole entry): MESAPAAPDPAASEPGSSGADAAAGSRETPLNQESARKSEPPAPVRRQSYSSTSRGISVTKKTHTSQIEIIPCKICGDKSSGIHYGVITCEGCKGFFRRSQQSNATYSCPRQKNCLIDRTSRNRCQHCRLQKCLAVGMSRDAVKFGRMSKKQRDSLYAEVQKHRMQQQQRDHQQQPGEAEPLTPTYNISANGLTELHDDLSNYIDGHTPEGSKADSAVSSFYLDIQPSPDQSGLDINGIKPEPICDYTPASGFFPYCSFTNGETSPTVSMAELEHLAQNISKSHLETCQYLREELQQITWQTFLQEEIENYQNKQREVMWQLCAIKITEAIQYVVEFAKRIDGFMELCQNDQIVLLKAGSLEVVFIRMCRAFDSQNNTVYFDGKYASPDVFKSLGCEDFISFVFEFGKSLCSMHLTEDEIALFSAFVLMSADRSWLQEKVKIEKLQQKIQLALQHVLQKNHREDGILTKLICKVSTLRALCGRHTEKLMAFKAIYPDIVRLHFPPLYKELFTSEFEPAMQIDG

[12] = Cmax in CD-1 mouse at 5 mg/kg, po administered as single dose measured after 24 hrs by LC-MS/MS analysis; type: ADME, organism-based; design: route oral, time 24 hrs, dose 5 mg/kg; conditions: in vivo
[13] = AUC (0 to last) in CD-1 mouse at 5 mg/kg, po administered as single dose measured after 24 hrs by LC-MS/MS analysis; type: ADME, organism-based; design: route oral, dose 5 mg/kg, time 24 hrs; conditions: in vivo
[14] = Half life in CD-1 mouse at 1 mg/kg, iv administered as single dose measured after 24 hrs by LC-MS/MS analysis; type: ADME, organism-based; conditions: in vivo

Structure (SMILES) | pIC50 [2] | other results
CCS(=O)(=O)c1ccc(CC(=O)Nc2cc(Cl)c(-c3ccccc3OC(F)(F)F)c(Cl)c2)cc1 | – | solubility kinetic at 2 h, 100 µM [1]: 1.25 µg/mL (≈ 2.35 µM)
O=C(NCc1ccc(C(O)CO)cc1)Nc1cc(Cl)c(-c2ccccc2OC(F)(F)F)c(Cl)c1 (configuration not stated) | 6.23 | –
Cc1cc(CNC(=O)Nc2cc(Cl)c(-c3ccccc3OC(F)(F)F)c(Cl)c2)ccc1CC(=O)O | 6.00 | –
CCS(=O)(=O)c1ccc(OCC(=O)Nc2cc(Cl)c(-c3ccccc3OC(F)(F)F)c(Cl)c2)cc1 | 7.00 | –
Cc1cc(CC(=O)O)ccc1CNC(=O)Nc1cc(Cl)c(-c2ccccc2OC(F)(F)F)c(Cl)c1 | 6.40 | –
O=C(O)Cc1ccc(CNC(=O)Nc2cc(F)c(-c3ccccc3OC(F)(F)F)c(F)c2)nc1 | 6.00 | –
CC(C(=O)O)c1ccc(CNC(=O)Nc2cc(Cl)c(-c3ccccc3OC(F)(F)F)c(Cl)c2)nc1 (configuration not stated) | 5.75 | –
O=C(O)Cc1ccc(CNC(=O)Nc2ccc(-c3ccccc3)cc2)cc1 | < 4.52 | –
Cc1cc(NC(=O)NCc2ccc(CC(=O)O)cn2)cc(C)c1-c1ccccc1OC(F)F | 6.46 | –
O=C(NCc1ccc(C(O)C(=O)O)cc1)Nc1cc(Cl)c(-c2ccccc2OC(F)(F)F)c(Cl)c1 (configuration not stated) | 6.56 | –
O=C(O)Cc1ccc(CNC(=O)Nc2cc(Cl)c(-c3ccccc3OC(F)(F)F)c(Cl)c2)cc1 | – | pIC50 [3]: < 5.00; bioavailability [4]: 38.1%; half-life [5]: 3.63 h; AUC(0-t) at 24 h [6]: 1270 ng·h/mL; solubility kinetic at 2 h, 100 µM [1]: 84 µg/mL (≈ 164 µM); Cmax [7]: 1550 ng/mL; clearance [8]: 13.1 mL/min/kg; Tmax [9]: 1 h; Vd [10]: 1.78 L/kg; pIC50 [11]: < 5.00; Cmax [12]: 609 ng/mL; AUC(0-t) at 24 h [13]: 2410 ng·h/mL; half-life [14]: 3.04 h
O=C(NCc1ccc(C(=O)O)cc1)Nc1cc(Cl)c(-c2ccccc2OC(F)(F)F)c(Cl)c1 | 5.96 | –
O=C(NCc1ccc(C(F)C(=O)O)cc1)Nc1cc(Cl)c(-c2ccccc2OC(F)(F)F)c(Cl)c1 (configuration not stated) | 6.91 | –
O=C(O)CCc1ccc(CNC(=O)Nc2cc(Cl)c(-c3ccccc3OC(F)(F)F)c(Cl)c2)cc1 | 6.07 | –
CC(=O)NS(=O)(=O)c1ccc(CNC(=O)Nc2cc(Cl)c(-c3ccccc3OC(F)(F)F)c(Cl)c2)cc1 | 6.86 | –
CC(C(=O)O)c1ccc(CNC(=O)Nc2cc(Cl)c(-c3ccccc3OC(F)(F)F)c(C#N)c2)cc1 (configuration not stated) | 6.48 | –
CC(C(=O)O)c1ccc(CNC(=O)Nc2cc(Cl)c(-c3ccccc3OC(F)(F)F)c(Cl)c2)cc1 (configuration not stated) | 6.27 | –

Now from value to molecule, other results behind:

pIC50 [2] | Structure (SMILES) | other results
7.16 | CS(=O)(=O)c1ccc(CNC(=O)Nc2cc(Cl)c(-c3ccccc3OC(F)(F)F)c(Cl)c2)cc1 | –
6.70 | CCS(=N)(=O)c1ccc(CNC(=O)Nc2cc(Cl)c(-c3ccccc3OC(F)(F)F)c(Cl)c2)cc1 (configuration not stated) | –
6.95 | CCS(=O)(=O)c1ccc(CNC(=O)c2cc(Cl)c(-c3ccccc3OC(F)(F)F)c(Cl)c2)cc1 | –
5.36 | CCS(=O)(=O)c1ccc(COCc2cc(Cl)c(-c3ccccc3OC(F)(F)F)c(Cl)c2)cc1 | –
7.00 | CNS(=O)(=O)c1ccc(CNC(=O)Nc2cc(Cl)c(-c3ccccc3OC(F)(F)F)c(Cl)c2)cc1 | –
6.56 | NS(=O)(=O)c1ccc(CNC(=O)Nc2cc(Cl)c(-c3ccccc3OC(F)(F)F)c(Cl)c2)cc1 | –
6.37 | CCS(=O)(=O)c1ccc(CCOc2cc(Cl)c(-c3ccccc3OC(F)(F)F)c(Cl)c2)cc1 | –
7.67 | CCS(=O)(=O)c1ccc(CCNc2cc(Cl)c(-c3ccccc3OC(F)(F)F)c(Cl)c2)cc1 | –
